# From US20240100127A1, “TIRZEPATIDE THERAPEUTIC METHODS” (Eli Lilly and Company, priority 2021, published 2024)
# Test system: patients with T2DM with HbA1c between ≥7.0% and ≤10.5% on metformin or metformin plus an SGLT-2 inhibitor
# Experiment: Example 1 clinical trial using tirzepatide, 52 weeks, versus insulin degludec
# Assay type: in vivo, human
# Settings: standard titration protocol
# Description: The enrollment criteria, set forth in Table 1 below, are designed to include participants who are similar to patients seen within a typical diabetes practice, and include some patient with type 2 diabetes that is refractory to oral treatment. Geriatric patients are included. Mean duration with type 2 diabetes about 8 years. Study continues for 52 weeks.
# The study is designed to consist of a screening visit followed by a single-blind 3-week placebo run-in period. Afterwards, patients are randomized to tirzepatide 5, 10, or 15 mg (dosed using an escalation dose protocol) or insulin degludec (standard titration protocol) and followed at approximately monthly intervals. Patients receiving insulin degludec follow standard insulin degludec titration protocol during the study. Study protocol includes blood pressure measurement at each visit and serum lipid profile at study initiation and at 52 weeks using standard clinical methods. Blood Pressure measures using the methods of Example 1 are represented in FIGS. 3 and 4. HDL-C levels using the methods of Example 1 are represented in FIG. 1.
substance,measurement,value
insulin degludec,Percent patients achieving ≤5.7% HbA1c by 52 weeks,insulin degludec: 5.4%
